Reference: the supplement of paper PMC11061612

Experiments:
Assay in all cases: combination Emax (second highest fraction inhibited in the dose matrix, 72 h); higher = more inhibition; extreme values may be limits of the assay
[1] = tested on: GRANTA-519 (B-Cell Non-Hodgkin's Lymphoma)
Summary of the method: (§1)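 Cell lines in DMEM/F12 or RPMI with 10% FBS were plated in 1536-well plates, held 24 hours at 37°C, 5% CO2, then given two-drug dose matrices for 72 hours (DMSO typically 0.2%). Viability was read by CellTiter-Glo 2.0 luminescence and scaled as inhibition from 0 (vehicle wells) to 1 (blank wells). Combination Emax is the second-highest inhibition in the matrix; Bliss excess is observed combination effect minus expected EA + EB − EA·EB, EA and EB being single-agent effects.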

C32 (Melanoma) = tested on: C32 (Melanoma)
Summary of the method: as §1

DK-MG (Glioblastoma) = tested on: DK-MG (Glioblastoma)
Summary of the method: as §1

[2] = tested on: KNS-62 (Squamous Cell Lung Carcinoma)
Summary of the method: as §1

[3] = tested on: MRK-nu-1 (Breast Carcinoma)
Summary of the method: as §1

NCI-H2452 (Mesothelioma) = tested on: NCI-H2452 (Mesothelioma)
Summary of the method: as §1

[4] = tested on: NCI-H2023 (Non-Small Cell Lung Carcinoma)
Summary of the method: as §1

[5] = tested on: Daudi (Burkitt's Lymphoma)
Summary of the method: as §1

[6] = tested on: TOV-21G (Ovarian Carcinoma)
Summary of the method: as §1

[7] = tested on: OCI-M1 (Acute Myeloid Leukemia)
Summary of the method: as §1

[8] = tested on: L-363 (Plasma Cell Myeloma)
Summary of the method: as §1

[9] = tested on: NCI-H1435 (Non-Small Cell Lung Carcinoma)
Summary of the method: as §1

[10] = tested on: IGROV-1 (Ovarian Carcinoma)
Summary of the method: as §1

A375 (Melanoma) = tested on: A375 (Melanoma)
Summary of the method: as §1

[11] = tested on: NCI-H2009 (Lung Adenocarcinoma)
Summary of the method: as §1

[12] = tested on: BC-1 (B-Cell Non-Hodgkin's Lymphoma)
Summary of the method: as §1

[13] = tested on: NCI-H1048 (Small Cell Lung Carcinoma)
Summary of the method: as §1

[14] = tested on: SBC-5 (Small Cell Lung Carcinoma)
Summary of the method: as §1

GCIY (Gastric Carcinoma) = tested on: GCIY (Gastric Carcinoma)
Summary of the method: as §1

[15] = tested on: NCI-H1648 (Lung Adenocarcinoma)
Summary of the method: as §1

SMILES	combination Emax [1]	combination Emax (C32 (Melanoma))	combination Emax (DK-MG (Glioblastoma))	combination Emax [2]	combination Emax [3]	combination Emax (NCI-H2452 (Mesothelioma))	combination Emax [4]	combination Emax [5]	combination Emax [6]	combination Emax [7]	combination Emax [8]	combination Emax [9]	combination Emax [10]	combination Emax (A375 (Melanoma))	combination Emax [11]	combination Emax [12]	combination Emax [13]	combination Emax [14]	combination Emax (GCIY (Gastric Carcinoma))	combination Emax [15]
Cc1c2c(nn1C)CSCc1cc(n(C)n1)CSc1cc(c3ccccc3c1)OCCCc1c(C(=O)O)n(C)c3c-2c(Cl)ccc13 [AZD5991] + C=CCn1c(=O)c2cnc(Nc3ccc(N4CCN(C)CC4)cc3)nc2n1-c1cccc(C(C)(C)O)n1 [AZD1775] (first compound max 1 µM, partner max 1 µM)	0.863	0.568	0.821	0.223	1	0.623	0.603	0.706	0.732	0.921	1	0.276	0.88	0.818	0.75	1	1	0.694	0.545	0.796
Cc1c2c(nn1C)CSCc1cc(n(C)n1)CSc1cc(c3ccccc3c1)OCCCc1c(C(=O)O)n(C)c3c-2c(Cl)ccc13 [AZD5991] + CCN(CCO)CCCOc1ccc2c(Nc3cc(CC(=O)Nc4cccc(F)c4)[nH]n3)ncnc2c1 [AZD2811] (first compound max 1 µM, 7x7, partner max 1 µM)	0.464	0.445	0.839	0.244	1	0.452	0.333	0.806	0.4	0.285	1	0.313	0.346	0.746	0.754	1	1	0.78	0.449	0.748
Cc1c2c(nn1C)CSCc1cc(n(C)n1)CSc1cc(c3ccccc3c1)OCCCc1c(C(=O)O)n(C)c3c-2c(Cl)ccc13 [AZD5991] + CN(C)CCCOc1ccc(-c2ccc3ncc4c(c3c2)n(C2CCOCC2)c(=O)n4C)cn1 [AZD0156] (first compound max 1 µM, 7x7, partner max 1 µM)	0.209	0.24	0.754	0.174	1	0.372	0.426	0.288	0.161	0.203	1	0.233	0.606	0.457	0.182	1	0.984	0.497	0.465	0.701
Cc1c2c(nn1C)CSCc1cc(n(C)n1)CSc1cc(c3ccccc3c1)OCCCc1c(C(=O)O)n(C)c3c-2c(Cl)ccc13 [AZD5991] + C[C@@H]1COCCN1C2=NC(=NC(=C2)C3(CC3)[S@](=N)(=O)C)C4=C5C=CNC5=NC=C4 [AZD6738] (first compound max 1 µM, 7x7, partner max 10 µM)	0.906	0.756	0.707	0.491	1	0.579	0.814	0.874	0.798	0.973	1	0.217	0.852	0.893	0.466	1	1	0.9	0.808	0.865
Cc1c2c(nn1C)CSCc1cc(n(C)n1)CSc1cc(c3ccccc3c1)OCCCc1c(C(=O)O)n(C)c3c-2c(Cl)ccc13 [AZD5991] + C[C@@H](Nc1cc(F)cc(F)c1)c1cc(C(=O)N(C)C)cc2c(=O)cc(N3CCOCC3)oc12 [AZD8186] (first compound max 1 µM, 7x7, partner max 3 µM)	0.0698	0.251	0.849	0.17	1	0.357	0.377	0.427	0.253	0.0662	1	0.276	0.8	0.289	0.165	1	0.965	0.845	0.565	0.844
Cc1c2c(nn1C)CSCc1cc(n(C)n1)CSc1cc(c3ccccc3c1)OCCCc1c(C(=O)O)n(C)c3c-2c(Cl)ccc13 [AZD5991] + Cn1cnc2c(F)c(Nc3ccc(Br)cc3Cl)c(C(=O)NOCCO)cc21 [Selumetinib] (first compound max 1 µM, 7x7, partner max 3 µM)	0.106	1	0.689	0.339	1	0.32	0.294	0.394	0.335	0.618	1	0.26	0.734	0.895	0.526	1	0.971	0.415	0.465	0.844
C[C@@H]1COCCN1c1cc(C2([S@](C)(=N)=O)CC2)nc(-c2ccnc3[nH]ccc23)n1 [AZD6738] + O=C(c1cc(Cc2n[nH]c(=O)c3ccccc23)ccc1F)N1CCN(C(=O)C2CC2)CC1 [Olaparib] (first compound max 10 µM, 7x7, partner max 10 µM)	0.754	0.694	0.316	0.413	0.621	0.469	0.846	0.828	0.538	0.982	0.854	0.212	0.704	0.66	0.478	0.939	0.786	0.789	0.811	0.689
NC1(C(=O)N[C@@H](CCO)c2ccc(Cl)cc2)CCN(c2ncnc3[nH]ccc23)CC1 [Capivasertib] + CC(=O)c1c(C)c2cnc(Nc3ccc(N4CCNCC4)cn3)nc2n(C2CCCC2)c1=O [Palbociclib] (first compound max 10 µM, 7x7, partner max 10 µM)	0.227	0.413	0.523	0.599	0.382	0.474	0.402	0.491	0.754	0.61	0.509	0.244	0.86	0.368	0.242	0.928	0.503	0.353	0.631	0.567
NC1(C(=O)N[C@@H](CCO)c2ccc(Cl)cc2)CCN(c2ncnc3[nH]ccc23)CC1 [Capivasertib] + CC(C)n1c(=O)n(C)c2cnc3cc(F)c(-c4ccc(OCCCN5CCCCC5)nc4)cc3c21 [AZD1390] (first compound max 10 µM, 7x7, partner max 0.3 µM)	0.196	0.353	0.454	0.547	0.576	0.399	0.409	0.338	0.723	0.287	0.465	0.198	0.799	0.228	0.372	0.761	0.439	0.281	0.397	0.585
NC1(C(=O)N[C@@H](CCO)c2ccc(Cl)cc2)CCN(c2ncnc3[nH]ccc23)CC1 [Capivasertib] + CCN(CCO)CCCOc1ccc2c(Nc3cc(CC(=O)Nc4cccc(F)c4)[nH]n3)ncnc2c1 [AZD2811] (first compound max 10 µM, 7x7, partner max 1 µM)	0.597	0.54	0.484	0.561	0.742	0.403	0.412	0.806	0.794	0.619	0.549	0.248	0.76	0.421	0.386	0.872	0.784	0.383	0.504	0.525
NC1(C(=O)N[C@@H](CCO)c2ccc(Cl)cc2)CCN(c2ncnc3[nH]ccc23)CC1 [Capivasertib] + COc1nnc2ccc(N3CCC(c4ccc(OCCN5CCN(C)C(=O)[C@H]5C)cc4)CC3)nn12 [AZD5153] (first compound max 10 µM, 7x7, partner max 1 µM)	0.317	0.687	0.611	0.809	0.587	0.456	0.362	0.793	0.892	1	0.879	0.248	0.804	0.469	0.498	0.977	0.71	0.563	0.735	0.753
NC1(C(=O)N[C@@H](CCO)c2ccc(Cl)cc2)CCN(c2ncnc3[nH]ccc23)CC1 [Capivasertib] + C[C@@H]1COCCN1C2=NC(=NC(=C2)C3(CC3)[S@](=N)(=O)C)C4=C5C=CNC5=NC=C4 [AZD6738] (first compound max 10 µM, 7x7, partner max 10 µM)	0.892	0.631	0.494	0.738	0.605	0.72	0.655	0.709	0.851	0.985	0.824	0.26	0.865	0.723	0.453	0.94	0.667	0.7	0.751	0.746
NC1(C(=O)N[C@@H](CCO)c2ccc(Cl)cc2)CCN(c2ncnc3[nH]ccc23)CC1 [Capivasertib] + Cn1cnc2c(F)c(Nc3ccc(Br)cc3Cl)c(C(=O)NOCCO)cc21 [Selumetinib] (first compound max 10 µM, 7x7, partner max 10 µM)	0.205	1	0.621	0.914	0.4	0.344	0.369	0.212	0.876	0.926	0.605	0.244	0.882	0.832	0.584	0.829	0.7	0.627	0.512	0.893
